Assays:
[1] = target: T1, CaV1.2 channel (Rattus norvegicus, UniProt P22002); experiment: Voltage dependence of CaV1.2 channel steady-state activation and inactivation in rat tail artery myocytes; assay type: cell-based; conditions: for Slope inact (slope factor of inactivation) / V50 inact (50% inactivation potential): Vh −80 mV
T1 construct: smooth muscle cells were freshly isolated; endogenous in cells; host or cells: freshly isolated rat tail main artery smooth muscle cells
Source text: (§1) An Axopatch 200B patch-clamp amplifier (Molecular Devices Corporation, Sunnyvale, CA, USA) was used to generate and apply voltage pulses to the clamped cells and record the corresponding membrane currents. Recording electrodes were pulled from borosilicate glass capillaries (WPI, Berlin, Germany) and fire-polished to obtain a pipette resistance of 2–4 MΩ, when filled with an internal solution. At the beginning of each experiment, the junction potential between the pipette and bath solution was electronically adjusted to zero. After compensation for whole-cell capacitance and series resistance (between 70% and 75%), current signals were low-pass filtered at 1 kHz and digitized at 3 kHz, before being stored on a computer hard disk. Electrophysiological responses were tested at room temperature (20–22 °C).
(§2) Cells were continuously superfused with an external solution containing 0.1 mM Ca^2+ and 30 mM TEA using a peristaltic pump (LKB 2132, Bromma, Sweden) at a flow rate of 400 µL/min. The conventional whole-cell patch-clamp method was employed to voltage-clamp smooth muscle cells. The internal solution consisted of (in mM) 100 CsCl, 10 HEPES, 11 EGTA, 2 MgCl2, 1 CaCl2 (pCa 8.4), 5 Na pyruvate, 5 succinic acid, 5 oxaloacetic acid, 3 Na2ATP, and 5 phosphocreatine; pH was adjusted to 7.4 with CsOH. IBa1.2 was recorded in an external solution containing 30 mM TEA and 5 mM Ba^2+. The current was elicited with 250-ms clamp pulses (0.067 Hz) to 10 mV, from a Vh of −50 mV. Data were collected once the current amplitude had been stabilized (usually 7–10 min after the whole-cell configuration had been obtained).
Steady-state activation curves were derived from the current–voltage relationships. Conductance (G) was calculated from the equation G = IBa1.2/(Em − Erev), where: IBa1.2 is the peak current elicited by depolarizing test pulses between −50 mV and 40 mV from a Vh of −50 mV; Em is the membrane potential; and Erev is the reversal potential (estimated from the extrapolated current-voltage curves in Figure 2). Gmax is the maximal Ba^2+ conductance (calculated at potentials ≤40 mV). The G/Gmax ratio was plotted against the membrane potential and fitted to the Boltzmann equation [40]. Steady-state inactivation curves were obtained using a double-pulse protocol. Once various levels of the conditioning potential had been applied for 5 s, followed by a short (5-ms) return to the Vh of −80 mV, a test pulse (250 ms) to 10 mV was delivered to evoke the current. The delay between the conditioning potential and the test pulse allowed the full or near-complete deactivation of the channels, simultaneously avoiding partial recovery from inactivation. K^+ currents were blocked with 30 mM TEA in the external solution and Cs^+ in the internal solution. […] The osmolarity of the 30 mM TEA- and 5 mM Ba^2+-containing external solution (320 mosmol, adjusted with NaCl if required) and that of the internal solution (290 mosmol) were measured with an osmometer (Osmostat OM 6020, Menarini Diagnostics, Florence, Italy).

[2] = target: T1, CaV1.2 channel; experiment: Whole-cell patch-clamp, Ba2+ current through CaV1.2 channels (IBa1.2) in rat tail artery myocytes; assay type: cell-based; conditions: pulses to 10 mV from Vh −50 mV
Procedure: The tail main artery was dissected free of its connective tissue, and smooth muscle cells were freshly isolated under the following conditions. […] Cells stored in 0.05 mM Ca^2+ external solution containing 20 mM taurine and 0.5 mg/mL BSA at 4 °C under normal air were used for experiments within two days after isolation.
as §1, with “After compensation for whole-cell capacitance and series resistance (between 70% and 75%), current signals were low-pass filtered at 1 kHz and digitized at 3 kHz, before being stored on a computer hard disk.” left out
as §2, with “The” for “Cells were continuously superfused with an external solution containing 0.1 mM Ca^2+ and 30 mM TEA using a peristaltic pump (LKB 2132, Bromma, Sweden) at a flow rate of 400 µL/min. The”, “The current was elicited with 250-ms clamp pulses (0.067 Hz) to 10 mV, from a Vh of −50 mV.” left out

T1 sequence (P22002 whole entry): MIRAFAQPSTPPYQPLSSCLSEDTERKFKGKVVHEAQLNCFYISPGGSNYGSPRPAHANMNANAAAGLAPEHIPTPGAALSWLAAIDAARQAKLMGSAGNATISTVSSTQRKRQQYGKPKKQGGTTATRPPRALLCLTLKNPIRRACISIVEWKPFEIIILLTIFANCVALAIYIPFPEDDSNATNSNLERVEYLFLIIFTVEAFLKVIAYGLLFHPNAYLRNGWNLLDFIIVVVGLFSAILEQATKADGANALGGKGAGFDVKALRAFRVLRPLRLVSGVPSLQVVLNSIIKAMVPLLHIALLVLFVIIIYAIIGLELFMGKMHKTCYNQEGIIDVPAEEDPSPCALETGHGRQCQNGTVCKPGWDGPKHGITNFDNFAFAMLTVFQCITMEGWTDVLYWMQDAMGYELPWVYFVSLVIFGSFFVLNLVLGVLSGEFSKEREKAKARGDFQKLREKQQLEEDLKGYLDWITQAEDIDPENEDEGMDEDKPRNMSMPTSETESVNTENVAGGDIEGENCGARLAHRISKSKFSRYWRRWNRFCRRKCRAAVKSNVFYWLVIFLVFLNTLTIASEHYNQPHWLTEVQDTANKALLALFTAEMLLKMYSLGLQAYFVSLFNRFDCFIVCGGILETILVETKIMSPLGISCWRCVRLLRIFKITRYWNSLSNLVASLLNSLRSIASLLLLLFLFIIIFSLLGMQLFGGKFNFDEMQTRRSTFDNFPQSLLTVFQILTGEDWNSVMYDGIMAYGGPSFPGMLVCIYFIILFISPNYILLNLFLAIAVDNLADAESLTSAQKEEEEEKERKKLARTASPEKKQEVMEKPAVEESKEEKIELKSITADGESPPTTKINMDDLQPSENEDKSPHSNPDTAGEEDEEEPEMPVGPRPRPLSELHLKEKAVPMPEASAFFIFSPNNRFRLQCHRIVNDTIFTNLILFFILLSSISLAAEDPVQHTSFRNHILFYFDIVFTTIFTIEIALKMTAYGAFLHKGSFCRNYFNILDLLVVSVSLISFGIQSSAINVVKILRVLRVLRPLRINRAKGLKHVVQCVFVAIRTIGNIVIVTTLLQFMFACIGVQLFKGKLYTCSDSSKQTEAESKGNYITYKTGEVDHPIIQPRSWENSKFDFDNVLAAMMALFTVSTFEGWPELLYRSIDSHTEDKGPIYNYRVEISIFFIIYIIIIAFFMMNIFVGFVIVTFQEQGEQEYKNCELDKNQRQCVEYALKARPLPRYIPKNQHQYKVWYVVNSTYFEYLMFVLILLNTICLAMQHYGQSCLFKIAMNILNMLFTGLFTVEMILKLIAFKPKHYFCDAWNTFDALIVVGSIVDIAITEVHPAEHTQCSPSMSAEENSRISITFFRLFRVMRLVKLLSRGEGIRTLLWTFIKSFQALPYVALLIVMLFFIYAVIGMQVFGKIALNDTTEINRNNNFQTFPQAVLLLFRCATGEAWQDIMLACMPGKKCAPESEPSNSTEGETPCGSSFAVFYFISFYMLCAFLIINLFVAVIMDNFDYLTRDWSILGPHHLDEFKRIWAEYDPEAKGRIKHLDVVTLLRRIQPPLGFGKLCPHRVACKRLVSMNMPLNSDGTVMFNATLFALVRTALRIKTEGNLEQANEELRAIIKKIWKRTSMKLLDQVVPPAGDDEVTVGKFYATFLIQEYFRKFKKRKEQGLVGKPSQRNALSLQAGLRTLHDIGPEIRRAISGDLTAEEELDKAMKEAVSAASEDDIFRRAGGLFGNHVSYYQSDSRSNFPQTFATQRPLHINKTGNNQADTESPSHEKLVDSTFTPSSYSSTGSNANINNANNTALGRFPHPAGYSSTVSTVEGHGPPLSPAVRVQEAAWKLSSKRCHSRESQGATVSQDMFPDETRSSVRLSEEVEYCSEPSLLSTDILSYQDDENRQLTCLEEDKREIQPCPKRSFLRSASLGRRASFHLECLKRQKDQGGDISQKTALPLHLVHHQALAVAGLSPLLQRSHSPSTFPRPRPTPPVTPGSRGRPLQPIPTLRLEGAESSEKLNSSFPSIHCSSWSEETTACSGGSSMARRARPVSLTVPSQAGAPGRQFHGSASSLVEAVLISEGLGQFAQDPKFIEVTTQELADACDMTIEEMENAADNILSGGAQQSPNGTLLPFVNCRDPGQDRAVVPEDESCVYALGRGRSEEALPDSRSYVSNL
T1 sequence (P54290 25-944 partner limits assumed): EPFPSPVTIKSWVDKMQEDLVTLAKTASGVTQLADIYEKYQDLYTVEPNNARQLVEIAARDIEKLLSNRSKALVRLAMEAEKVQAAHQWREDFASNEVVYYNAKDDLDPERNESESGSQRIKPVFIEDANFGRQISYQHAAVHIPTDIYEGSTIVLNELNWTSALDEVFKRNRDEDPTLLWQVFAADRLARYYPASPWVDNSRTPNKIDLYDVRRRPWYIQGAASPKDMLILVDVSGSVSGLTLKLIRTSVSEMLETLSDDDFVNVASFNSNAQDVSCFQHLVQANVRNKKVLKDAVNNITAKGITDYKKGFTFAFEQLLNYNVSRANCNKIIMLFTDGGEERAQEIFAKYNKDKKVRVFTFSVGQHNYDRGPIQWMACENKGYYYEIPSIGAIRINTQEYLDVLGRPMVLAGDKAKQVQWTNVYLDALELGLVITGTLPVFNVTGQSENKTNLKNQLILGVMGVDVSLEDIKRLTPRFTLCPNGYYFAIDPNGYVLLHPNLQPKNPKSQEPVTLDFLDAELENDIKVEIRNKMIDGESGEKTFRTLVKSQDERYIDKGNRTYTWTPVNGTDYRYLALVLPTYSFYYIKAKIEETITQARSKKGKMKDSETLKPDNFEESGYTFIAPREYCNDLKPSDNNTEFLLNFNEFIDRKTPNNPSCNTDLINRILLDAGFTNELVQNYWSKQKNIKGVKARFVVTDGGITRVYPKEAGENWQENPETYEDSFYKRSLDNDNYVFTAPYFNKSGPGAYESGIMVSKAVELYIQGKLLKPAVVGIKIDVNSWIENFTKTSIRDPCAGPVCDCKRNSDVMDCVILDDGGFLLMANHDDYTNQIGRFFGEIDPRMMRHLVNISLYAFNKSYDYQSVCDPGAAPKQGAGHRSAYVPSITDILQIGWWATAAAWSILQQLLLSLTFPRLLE
T1 sequence (P54290 945-1091 partner limits assumed): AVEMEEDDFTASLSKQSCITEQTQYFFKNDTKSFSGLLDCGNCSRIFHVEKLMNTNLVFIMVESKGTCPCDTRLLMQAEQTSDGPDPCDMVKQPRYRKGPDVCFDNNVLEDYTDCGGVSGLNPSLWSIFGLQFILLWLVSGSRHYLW
T1 sequence (P54287 whole entry partner): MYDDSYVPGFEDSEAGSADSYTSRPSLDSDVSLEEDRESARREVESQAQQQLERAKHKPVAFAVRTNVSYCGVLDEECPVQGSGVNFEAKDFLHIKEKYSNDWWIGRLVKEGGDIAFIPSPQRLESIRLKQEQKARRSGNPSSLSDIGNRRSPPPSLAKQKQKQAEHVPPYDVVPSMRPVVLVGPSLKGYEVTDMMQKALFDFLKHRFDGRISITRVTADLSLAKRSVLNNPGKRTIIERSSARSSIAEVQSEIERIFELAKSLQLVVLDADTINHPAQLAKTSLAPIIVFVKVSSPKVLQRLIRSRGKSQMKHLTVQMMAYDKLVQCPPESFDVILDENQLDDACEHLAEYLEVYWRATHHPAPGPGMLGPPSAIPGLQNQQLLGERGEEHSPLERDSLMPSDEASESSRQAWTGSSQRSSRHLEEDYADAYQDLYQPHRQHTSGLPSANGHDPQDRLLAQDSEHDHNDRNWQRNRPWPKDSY

With CC1(C)CCC[C@]2(C)[C@@H](CC(=O)Nc3ccccc3-n3cccc3)[C@](C)(O)CC[C@@H]12 [Compound 7] the “Slope act (slope factor of activation)” value ([1]; 10 µM compound) was 8.36 ± 0.75, the “Slope inact (slope factor of inactivation)” value ([1]; 10 µM compound) was −7.53 ± 0.24 and the “V50 inact (50% inactivation potential)” value ([1]; 10 µM compound) was −30.24 ± 1.29 mV. For the same compound, the “Ba2+ window current, potential of the peak” value ([1]; 10 µM, control peaked at −10 mV) was “about −15 mV”, the “Ba2+ window current, relative amplitude at peak” value ([1]; 10 µM, control relative amplitude 0.078) was 0.021 and the “Slope inact (slope factor of inactivation)” value ([1]; 30 µM compound) was −7.70 ± 0.51. The “V50 inact (50% inactivation potential)” value ([1]; 30 µM compound) was −38.29 ± 2.00 mV, the Emax ([2]; read-out: Emax (percent maximal inhibition), IBa1.2) was 90.5 ± 5.8% and the IC50 ([2]; read-out: IC50, IBa1.2 inhibition) was 13.2 ± 5.4 µM.
